From patent US7923442B2, “Glutathione peroxidase mimetics and uses thereof” (UTI Limited Partnership, priority 2005, dated 2011)

Key:
[1] = Catalytic activity of GPx mimetics: reduction of hydrogen peroxide with benzyl thiol
Description: (§1) Catalytic activity of the compounds described herein can be determined via assessing the reduction of tert-butyl hydroxyperoxide and hydrogen peroxide with benzyl thiol for example as described in Example 1, herein. According to this embodiment, catalytic activity was compared by means of reaction half-life (t1/2), where the value reflects the time required to oxidize half of the thiol to its disulfide.
(§2) Diselenide 17, selenide 20 and spirodioxyselenurane 25 were prepared by literature procedures. NMR spectra were run in CDCl3 unless otherwise indicated. Chemical shifts for ^77Se and ^125Te NMR spectra are reported relative to dimethyl selenide and dimethyl telluride, respectively (δ 0.00). The spectra were recorded by using diphenyl diselenide in CDCl3 (δ 463 ppm) or selenium dioxide in D2O (δ 1302.6 ppm) for ^77Se NMR spectra, and diphenyl ditelluride in CDCl3 (δ 420.8 ppm) for ^125Te NMR spectra. Benzyl thiol was distilled prior to use and the concentrations of tert-butyl hydroperoxide and hydrogen peroxide were determined by iodometric analysis.
(§3) Glassware used in the measurement of catalytic activity (Example 9) was washed only with water followed by acetone, and was flame-dried prior to use. Contamination with traces of detergent or alkali produced abnormal kinetic results.
(§4) Catalytic activity of some of the compounds synthesized as described the foregoing Examples are described in the tables below, where the activity measured is in terms of comparability to selenoenzyme glutathione peroxidase. Reactions were performed with BnSH (0.029 M), the catalyst (0.0029 M) and either 56% TBHP (0.038 M), 38% TBHP (0.023 M) or 29% H2O2(0.040 M) in CH2Cl2-MeOH (95:5) at 18° C., except for entries 7, 8, 17 and 18, where the solvent was CH2Cl2-MeOH (4:1).

[2] = Catalytic activity of GPx mimetics: reduction of tert-butyl hydroperoxide with benzyl thiol
Description: as §1, §2, §3, §4

[3] = Catalytic activity of GPx mimetics: overall comparison of catalysts in words (both oxidants); settings: reduction of peroxides with BnSH; for catalytic activity compared to their selenium analogs 14 and 16: fastest reaction rates
Excerpt: as §1, §4
In general, hydrogen peroxide was reduced faster than tert-butyl hydroperoxide in the presence of the selenium-based catalysts.

Row | SMILES | t1/2 (h), time required to oxidize half of the thiol to its disulfide [1] [h] | t1/2 (h), time required to oxidize half of the thiol to its disulfide [2] [h] | melting point [°C] | catalytic activity compared to their selenium analogs 14 and 16 [3] | catalytic activity compared to the parent cyclic seleninate ester 14 and spirodioxyselenurane 16 [3]
1 | C1CO[Se]2(C1)CCCO2 [Compound 16, reference compound] | 0.2 | – | – | – | –
2 | Fc1ccc2c(c1)CO[Se]21OCc2cc(F)ccc21 [Compound 127, spirodioxyselenurane] | 16 | 181 | 189 to 191 | – | –
3 | O=[Se]1OCc2cc(F)ccc21 (stereo not drawn) [Compound 93, 5-fluorobenzo-1,2-oxaselenolane Se-oxide] | 39 | 238 | 141 to 142 | – | –
4 | C1CO[Te]2(C1)CCCO2 [Compound 29, Spirodioxytellurane] | – | – | – | superior catalysts | –
5 | COc1ccc2c(c1)CO[Se]21OCc2cc(OC)ccc21 [Compound 126, spirodioxyselenurane] | 3.3 | 39 | 171 to 173 | – | –
6 | O=[Se]1OCc2ccccc21 (stereo not drawn) [Compound 19, Benzo-1,2-oxaselenolane Se-Oxide] | 18 | 162 | – | – | inferior catalysts
7 | O=C1O[Se]2(OC(=O)c3ccccc32)c2ccccc21 [Compound 25, Spirodioxyselenurane, reference compound] | 35 | 113 | – | – | inferior catalysts
8 | COc1ccc2c(c1)CO[Se]2=O (stereo not drawn) [Compound 91, 5-metboxybenzo-1,2-oxaselenolane Se-oxide] | 28 | 81 | – | – | –
9 | O=[Te]1CCCO1 [Compound 27, 1,2-Oxatellurolane Te-oxide] | – | – | – | superior catalysts | –
10 | c1ccc2c(c1)CO[Se]21OCc2ccccc21 [Compound 24, Spirodioxyselenurane] | 5.5 | 62 | – | – | inferior catalysts
11 | O=C1O[Se](=O)c2ccccc21 (stereo not drawn) [Compound 22, Benzo-3-oxo-1,2-Oxaselenolane Se-Oxide] | 73 | 252 | – | – | inferior catalysts
12 | O=[Se]1CCCO1 (stereo not drawn) [Compound 14, reference compound] | 18 | – | – | – | –
